The structures appear in SMILES notation. Numbered stars: 1 amine (or outer) side, 2 acyl side, 3 side chain; on linkers, the order of the positions; unused ones are H or OH. Bridge positions count the residues as written; N and C are the ends. Square brackets hold non-standard residues; d marks the D form. Peptide text beside a SMILES is read from it. * marks the point of attachment. Bip(4'-COOH) = N[C@@H](Cc1ccc(-c2ccc(C(=O)O)cc2)cc1)C(=O)O; Bip(4'-NHAc) = CC(=O)Nc1ccc(-c2ccc(C[C@H](N)C(=O)O)cc2)cc1; Phe(3,4,5-F3) = N[C@@H](Cc1cc(F)c(F)c(F)c1)C(=O)O; Phe(3-CF3) = N[C@@H](Cc1cccc(C(F)(F)F)c1)C(=O)O; Ala(morpholin-4-yl) = N[C@@H](CN1CCOCC1)C(=O)O; Phe(4-CONH2) = NC(=O)c1ccc(C[C@H](N)C(=O)O)cc1; Phe(4-COOH) = N[C@@H](Cc1ccc(C(=O)O)cc1)C(=O)O; Bip = N[C@@H](Cc1ccc(-c2ccccc2)cc1)C(=O)O; Abu(3R-NH2) = C[C@@H](N)[C@H](N)C(=O)O; Phe(3-Me) = Cc1cccc(C[C@H](N)C(=O)O)c1; Abu(3S-NH2) = C[C@H](N)[C@H](N)C(=O)O; Val(3-OH) = CC(C)(O)[C@H](N)C(=O)O; hPhe = N[C@@H](CCc1ccccc1)C(=O)O; Aad = N[C@@H](CCCC(=O)O)C(=O)O; Cha = N[C@@H](CC1CCCCC1)C(=O)O; Suc = O=C(CCC(=O)[*:2])[*:1]; Carboxymethyl = O=C(O)C*; NMeA = CN[C@@H](C)C(=O)O; Orn = NCCC[C@H](N)C(=O)O; Dab = NCC[C@H](N)C(=O)O; Dap = NC[C@H](N)C(=O)O; X9 = O=C(CCF)*

In the first test the target is T1, Alexa fluor-647 labeled human PD-L1-Ig binding to Jurkat cell line over-expressing human PD-1 (Homo sapiens, UniProt Q15116).
T1 construct: expressed in transfected cells; host or cells: Jurkat
T1 sequence (Q15116 25-288): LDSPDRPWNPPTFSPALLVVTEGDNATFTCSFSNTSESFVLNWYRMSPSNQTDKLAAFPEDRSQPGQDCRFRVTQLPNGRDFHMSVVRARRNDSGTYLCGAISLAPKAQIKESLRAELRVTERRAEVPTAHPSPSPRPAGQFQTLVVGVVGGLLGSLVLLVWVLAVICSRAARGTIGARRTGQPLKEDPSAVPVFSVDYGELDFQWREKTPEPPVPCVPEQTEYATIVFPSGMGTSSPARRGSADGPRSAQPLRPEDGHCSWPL
Briefly: Jurkat-PD-1 Cell Binding High-Content Screening Assay (CBA): Method 3 (Alexa fluor-647 labeled PD-L1-Ig). Conditions: Jurkat-PD-1 cells, Alexa fluor-647 labeled PD-L1-Ig 177 nM; head μM; read-out: CBA Method 3 μM. Here is the method: Jurkat-PD-1 Cell Binding High-Content Screening Assay (CBA): Method 3
Alexa fluor-647 was covalently linked to the Ig epitope tag of human PD-L1-Ig and fluorescently labeled PD-L1-Ig was used for the binding studies with a Jurkat cell line over-expressing human PD-1. Briefly, 2.5×10^4 Jurkat-hPD-1 cells were seeded into 384 well plates in 20 μl of RPMI supplemented with 10% fetal calf serum. 12.5 nl of compound was added to cells followed by incubation at 37° C. for 2 hours. Then, 10 ul of Alexa fluor-647 labeled PD-L1-Ig (177 nM final), diluted in RPMI supplemented with 10% fetal calf serum was added to the cells and incubated for 1 hour. Cells were then fixed with 4% paraformaldehyde containing 10 μg/ml Hoechst 33342 and then washed 3× in 100 ul PBS and 100 ul of PBS was added in the final step. Data was collected using the Operetta High Content Imager and the data was analyzed using the columbus software.
`CC(C)C[C@H]1NC(=O)[C@H](C)N(C)C(=O)[C@H](CCC(N)=O)NC(=O)[C@H](Cc2ccc(-c3ccccc3)cc2)NC(=O)[C@H](CCc2ccccc2)NC(=O)[C@H](Cc2cccc(C(F)(F)F)c2)NC(=O)[C@H](CC(=O)O)NC(=O)[C@H](Cc2ccc(OCC(=O)O)cc2)NC(=O)[C@H](CC2CCCCC2)NC(=O)CSC[C@@H](C(=O)N[C@@H](CCN)C(N)=O)NC(=O)[C@H](CO)NC(=O)[C@H](C(C)(C)O)NC(=O)[C@H](CC2CCCCC2)NC(=O)[C@H](CCN)NC1=O` [Example 5226] ({CH2CO}-[Cha]Y(Carboxymethyl)D[Phe(3-CF3)][hPhe][Bip]Q[NMeA][dL][Dab][Cha][Val(3-OH)]SC[Dab]-NH2; thioether N-14): the IC50 is 0.07 µM.

With `CC(C)C[C@H]1NC(=O)[C@H](C)N(C)C(=O)[C@H](Cc2ccc(C(=O)O)cc2)NC(=O)[C@H](Cc2ccc(-c3ccccc3)cc2)NC(=O)[C@H](Cc2ccc(C(=O)O)cc2)NC(=O)[C@H](Cc2cccc(C(F)(F)F)c2)NC(=O)[C@H](CC(=O)O)NC(=O)[C@H](Cc2ccc(C(=O)O)cc2)NC(=O)[C@H](CN2CCOCC2)NC(=O)CSC[C@@H](C(=O)N[C@@H](CCN)C(N)=O)NC(=O)[C@H](CNC(=O)CCF)NC(=O)[C@H](C(C)C)NC(=O)[C@H](CC2CCCCC2)NC(=O)[C@H](CCN)NC1=O` [Example 5233] ({CH2CO}-[Ala(morpholin-4-yl)][Phe(4-COOH)]D[Phe(3-CF3)][Phe(4-COOH)][Bip][Phe(4-COOH)][NMeA][dL][Dab][Cha]V[Dap](X9)C[Dab]-NH2; thioether N-14), the IC50 stood at 0.02 µM.

Take `CC(C)C[C@H]1NC(=O)[C@H](C)N(C)C(=O)[C@H](CCC(N)=O)NC(=O)[C@H](Cc2ccc(-c3ccccc3)cc2)NC(=O)[C@H](CCc2ccccc2)NC(=O)[C@H](Cc2cccc(C(F)(F)F)c2)NC(=O)[C@H](CC(=O)O)NC(=O)[C@H](Cc2ccc(OCC(=O)O)cc2)NC(=O)[C@H](CC2CCCCC2)NC(=O)CSC[C@@H](C(=O)N[C@@H](CCN)C(N)=O)NC(=O)[C@H](CCC(=O)O)NC(=O)[C@H](C(C)C)NC(=O)[C@H](CC2CCCCC2)NC(=O)[C@H](CCN)NC1=O` [Example 5213] ({CH2CO}-[Cha]Y(Carboxymethyl)D[Phe(3-CF3)][hPhe][Bip]Q[NMeA][dL][Dab][Cha]VEC[Dab]-NH2; thioether N-14): the IC50 came to 0.33 µM.

As to `CC(=O)Nc1ccc(-c2ccc(C[C@@H]3NC(=O)[C@H](Cc4cccc(C)c4)NC(=O)[C@H](CC(=O)O)NC(=O)[C@H](Cc4ccc(C(=O)O)cc4)NC(=O)[C@H](CN4CCOCC4)NC(=O)CSC[C@@H](C(=O)N[C@@H](CCN)C(N)=O)NC(=O)[C@H](CCCC(N)=O)NC(=O)[C@H](C(C)C)NC(=O)[C@H](CC4CCCCC4)NC(=O)[C@H](CCN)NC(=O)[C@@H](CC(C)C)NC(=O)[C@H](C)N(C)C(=O)[C@H](Cc4ccc(C(=O)O)cc4)NC(=O)[C@H](Cc4ccc(-c5ccccc5)cc4)NC3=O)cc2)cc1` [Example 5257] ({CH2CO}-[Ala(morpholin-4-yl)][Phe(4-COOH)]D[Phe(3-Me)][Bip(4'-NHAc)][Bip][Phe(4-COOH)][NMeA][dL][Dab][Cha]V[Aad](NH2)C[Dab]-NH2; thioether N-14), the IC50 worked out at 0.03 µM.

On to `CC(=O)Nc1ccc(-c2ccc(C[C@@H]3NC(=O)[C@H](Cc4cccc(C)c4)NC(=O)[C@H](CC(=O)O)NC(=O)[C@H](Cc4ccc(C(=O)O)cc4)NC(=O)[C@H](CC4CCCCC4)NC(=O)CSC[C@@H](C(=O)N[C@@H](CCN)C(N)=O)NC(=O)[C@H](CCC(N)=O)NC(=O)[C@H](C(C)C)NC(=O)[C@H](CC4CCCCC4)NC(=O)[C@H](CCN)NC(=O)[C@@H](CC(C)C)NC(=O)[C@H](C)N(C)C(=O)[C@H](Cc4ccc(C(=O)O)cc4)NC(=O)[C@H](Cc4ccc(-c5ccccc5)cc4)NC3=O)cc2)cc1` [Example 5200] ({CH2CO}-[Cha][Phe(4-COOH)]D[Phe(3-Me)][Bip(4'-NHAc)][Bip][Phe(4-COOH)][NMeA][dL][Dab][Cha]VQC[Dab]-NH2; thioether N-14), for which the IC50 turned out to be 0.02 µM.

Consider `Cc1cccc(C[C@@H]2NC(=O)[C@H](CC(=O)O)NC(=O)[C@H](Cc3ccc(OCC(=O)O)cc3)NC(=O)[C@H](Cc3cc(F)c(F)c(F)c3)NC(=O)CSC[C@@H](C(=O)N[C@@H](CCN)C(N)=O)NC(=O)[C@H](CCCN)NC(=O)[C@H](C(C)C)NC(=O)[C@H](CC3CCCCC3)NC(=O)[C@H](CCN)NC(=O)[C@@H](CC(C)C)NC(=O)[C@H](C)N(C)C(=O)[C@H](CCC(N)=O)NC(=O)[C@H](Cc3ccc(-c4ccccc4)cc3)NC(=O)[C@H](Cc3ccc(C(=O)O)cc3)NC2=O)c1` [Example 5287] ({CH2CO}-[Phe(3,4,5-F3)]Y(Carboxymethyl)D[Phe(3-Me)][Phe(4-COOH)][Bip]Q[NMeA][dL][Dab][Cha]V[Orn]C[Dab]-NH2; thioether N-14), for which the IC50 worked out at 0.27 µM.

Take `CC(=O)Nc1ccc(-c2ccc(C[C@@H]3NC(=O)[C@H](Cc4cccc(C)c4)NC(=O)[C@H](CC(=O)O)NC(=O)[C@H](Cc4ccc(C(=O)O)cc4)NC(=O)[C@H](CN4CCOCC4)NC(=O)CSC[C@@H](C(=O)N[C@@H](CCN)C(N)=O)NC(=O)[C@H](CCCC(=O)O)NC(=O)[C@H](C(C)C)NC(=O)[C@H](CC4CCCCC4)NC(=O)[C@H](CCN)NC(=O)[C@@H](CC(C)C)NC(=O)[C@H](C)N(C)C(=O)[C@H](Cc4ccc(C(=O)O)cc4)NC(=O)[C@H](Cc4ccc(-c5ccccc5)cc4)NC3=O)cc2)cc1` [Example 5255] ({CH2CO}-[Ala(morpholin-4-yl)][Phe(4-COOH)]D[Phe(3-Me)][Bip(4'-NHAc)][Bip][Phe(4-COOH)][NMeA][dL][Dab][Cha]V[Aad]C[Dab]-NH2; thioether N-14): the IC50 worked out at 0.0022 µM.

Still in this test, the particulars now being: Jurkat-PD-1 cells, Alexa fluor-647 labeled PD-L1-Ig 177 nM; nM; read-out: CBA Method 3.
On to `CC(=O)Nc1ccc(-c2ccc(C[C@@H]3NC(=O)[C@H](Cc4cccc(C)c4)NC(=O)[C@H](CC(=O)O)NC(=O)[C@H](Cc4ccc(-c5ccc(C(=O)O)cc5)cc4)NC(=O)[C@H](CN4CCOCC4)NC(=O)CSC[C@@H](C(=O)N[C@@H](CCN)C(N)=O)NC(=O)[C@H](CO)NC(=O)[C@H](C(C)(C)O)NC(=O)[C@H](CC4CCCCC4)NC(=O)[C@H](Cc4cnc[nH]4)NC(=O)[C@@H](CC(C)C)NC(=O)[C@H](C)N(C)C(=O)[C@H](Cc4ccc(C(=O)O)cc4)NC(=O)[C@H](Cc4ccc(-c5ccccc5)cc4)NC3=O)cc2)cc1` [Example 5123] ({CH2CO}-[Ala(morpholin-4-yl)][Bip(4'-COOH)]D[Phe(3-Me)][Bip(4'-NHAc)][Bip][Phe(4-COOH)][NMeA][dL]H[Cha][Val(3-OH)]SC[Dab]-NH2; thioether N-14), for which the IC50 stood at 0.0094 µM.

Take `CC(C)C[C@H]1NC(=O)[C@H](C)N(C)C(=O)[C@H](CCC(N)=O)NC(=O)[C@H](Cc2ccc(-c3ccccc3)cc2)NC(=O)[C@H](Cc2ccc(OCC(=O)O)cc2)NC(=O)[C@H](Cc2cccc(C(F)(F)F)c2)NC(=O)[C@H](CC(=O)O)NC(=O)[C@H](CCC(N)=O)NC(=O)[C@H](CC2CCCCC2)NC(=O)CSC[C@@H](C(=O)N[C@@H](CCN)C(N)=O)NC(=O)[C@H](CCCN)NC(=O)[C@H](C(C)C)NC(=O)[C@H](CC2CCCCC2)NC(=O)[C@H](CCN)NC1=O` [Example 5248] ({CH2CO}-[Cha]QD[Phe(3-CF3)]Y(Carboxymethyl)[Bip]Q[NMeA][dL][Dab][Cha]V[Orn]C[Dab]-NH2; thioether N-14): the IC50 came to 0.0006 µM.

Turning to `CC(=O)Nc1ccc(-c2ccc(C[C@@H]3NC(=O)[C@H](Cc4cccc(C(F)(F)F)c4)NC(=O)[C@H](CC(=O)O)NC(=O)[C@H](Cc4ccc(C(=O)O)cc4)NC(=O)[C@H]([C@H](C)N)NC(=O)CSC[C@@H](C(=O)N[C@@H](CCN)C(N)=O)NC(=O)[C@H](CCC(=O)O)NC(=O)[C@H](C(C)C)NC(=O)[C@H](CC4CCCCC4)NC(=O)[C@H](CCN)NC(=O)[C@@H](CC(C)C)NC(=O)[C@H](C)N(C)C(=O)[C@H](Cc4ccc(C(N)=O)cc4)NC(=O)[C@H](Cc4ccc(-c5ccccc5)cc4)NC3=O)cc2)cc1` [Example 5118] ({CH2CO}-[Abu(3S-NH2)][Phe(4-COOH)]D[Phe(3-CF3)][Bip(4'-NHAc)][Bip][Phe(4-CONH2)][NMeA][dL][Dab][Cha]VEC[Dab]-NH2; thioether N-14), the IC50 came to 0.0017 µM.

In the case of `CC(C)C[C@H]1NC(=O)[C@H](C)N(C)C(=O)[C@H](CCC(N)=O)NC(=O)[C@H](Cc2ccc(-c3ccccc3)cc2)NC(=O)[C@H](CCc2ccccc2)NC(=O)[C@H](Cc2cccc(C(F)(F)F)c2)NC(=O)[C@H](CC(=O)O)NC(=O)[C@H](Cc2ccc(OCC(=O)O)cc2)NC(=O)[C@H]([C@@H](C)N)NC(=O)CSC[C@@H](C(=O)N[C@@H](CCN)C(N)=O)NC(=O)[C@H](CO)NC(=O)[C@H](C(C)(C)O)NC(=O)[C@H](CC2CCCCC2)NC(=O)[C@H](CCN)NC1=O` [Example 5227] ({CH2CO}-[Abu(3R-NH2)]Y(Carboxymethyl)D[Phe(3-CF3)][hPhe][Bip]Q[NMeA][dL][Dab][Cha][Val(3-OH)]SC[Dab]-NH2; thioether N-14), the IC50 is 0.0015 µM.

Turning to `CC(C)C[C@H]1NC(=O)[C@H](C)N(C)C(=O)[C@H](Cc2ccc(C(=O)O)cc2)NC(=O)[C@H](Cc2ccc(-c3ccccc3)cc2)NC(=O)[C@H](Cc2ccc(C(=O)O)cc2)NC(=O)[C@H](Cc2cccc(C(F)(F)F)c2)NC(=O)[C@H](CC(=O)O)NC(=O)[C@H](Cc2ccc(C(=O)O)cc2)NC(=O)[C@H](CC2CCCCC2)NC(=O)CSC[C@@H](C(=O)N[C@@H](CCN)C(N)=O)NC(=O)[C@H](CNC(=O)CCC(=O)O)NC(=O)[C@H](C(C)C)NC(=O)[C@H](CC2CCCCC2)NC(=O)[C@H](CCN)NC1=O` [Example 5228] ({CH2CO}-[Cha][Phe(4-COOH)]D[Phe(3-CF3)][Phe(4-COOH)][Bip][Phe(4-COOH)][NMeA][dL][Dab][Cha]V[Dap](Suc)C[Dab]-NH2; thioether N-14), the IC50 is 0.0008 µM.
